Patent publication US20240109903A1, “SUBSTITUTED HETEROCYCLES FOR TREATING CANCER” (Northwestern University, priority 2022, published 2024)
Where two headings read alike, the source gives them in different places.

Columns and labels:
Type in all cases: cell-based
[1] = tested on: MV-4-11 acute myeloid leukemia cells; test: CellTiter-Glo 2.0 cell viability, MV-4-11; details: Homo sapiens
Summary of the method: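 MV4-11 cells plated at 3,000 cells/well on pre-dispensed compounds and incubated 3 days at 37 °C, 5% CO2. Viability read as ATP-dependent luminescence with CellTiter-Glo 2.0 after 20 min at ambient temperature, followed by regression analysis.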

K-562 = test: NCI 60 five-dose screen K-562; details: Homo sapiens, K562, five-dose; for CC50: read-out: LC50 (the source's name)
MOLT-4 = test: NCI 60 five-dose screen MOLT-4; details: Homo sapiens, five-dose; for CC50: read-out: LC50 (the source's name)
RPMI-8226 = test: NCI 60 five-dose screen RPMI-8226; details: Homo sapiens, five-dose; for CC50: read-out: LC50 (the source's name)
EKVX = test: NCI 60 five-dose screen EKVX; details: Homo sapiens, five-dose; for CC50: read-out: LC50 (the source's name) (converted)
NCI-H226 = test: NCI 60 five-dose screen NCI-H226; details: Homo sapiens, five-dose; for CC50: read-out: LC50 (the source's name) (converted)
NCI-H23 = test: NCI 60 five-dose screen NCI-H23; details: Homo sapiens, five-dose; for CC50: read-out: LC50 (the source's name) (converted)
SW-620 = test: NCI 60 five-dose screen SW-620; details: Homo sapiens, five-dose; for CC50: read-out: LC50 (the source's name) (converted)
SNB-19 = test: NCI 60 five-dose screen SNB-19; details: Homo sapiens, five-dose; for CC50: read-out: LC50 (the source's name) (converted)
LOX IMVI = test: NCI 60 five-dose screen LOX IMVI; details: Homo sapiens, five-dose; for CC50: read-out: LC50 (the source's name) (converted)
MALME-3M = test: NCI 60 five-dose screen MALME-3M; details: Homo sapiens, MALME-3M, five-dose; for CC50: read-out: LC50 (the source's name) (converted)
MDA-MB-435 = test: NCI 60 five-dose screen MDA-MB-435; details: Homo sapiens, five-dose; for CC50: read-out: LC50 (the source's name) (converted)
SK-MEL-28 = test: NCI 60 five-dose screen SK-MEL-28; details: Homo sapiens, five-dose; for CC50: read-out: LC50 (the source's name) (converted)
SK-MEL-5 = test: NCI 60 five-dose screen SK-MEL-5; details: Homo sapiens, five-dose; for CC50: read-out: LC50 (the source's name) (converted)
OVCAR-3 = test: NCI 60 five-dose screen OVCAR-3; details: Homo sapiens, five-dose; for CC50: read-out: LC50 (the source's name) (converted)
SK-OV-3 = test: NCI 60 five-dose screen SK-OV-3; details: Homo sapiens, five-dose; for CC50: read-out: LC50 (the source's name) (converted)
786-0 = test: NCI 60 five-dose screen 786-0; details: Homo sapiens, five-dose; for CC50: read-out: LC50 (the source's name) (converted)
RXF 393 = test: NCI 60 five-dose screen RXF 393; details: Homo sapiens, five-dose; for CC50: read-out: LC50 (the source's name) (converted)
TK-10 = test: NCI 60 five-dose screen TK-10; details: Homo sapiens, five-dose; for CC50: read-out: LC50 (the source's name) (converted)
UO-31 = test: NCI 60 five-dose screen UO-31; details: Homo sapiens, five-dose; for CC50: read-out: LC50 (the source's name) (converted)
PC-3 = test: NCI 60 five-dose screen PC-3; details: Homo sapiens, five-dose; for CC50: read-out: LC50 (the source's name) (converted)
DU-145 = test: NCI 60 five-dose screen DU-145; details: Homo sapiens, five-dose; for CC50: read-out: LC50 (the source's name) (converted)
MDA-MB-231/ATCC = test: NCI 60 five-dose screen MDA-MB-231/ATCC; details: Homo sapiens, five-dose; for CC50: read-out: LC50 (the source's name) (converted)
BT-549 = test: NCI 60 five-dose screen BT-549; details: Homo sapiens, five-dose; for CC50: read-out: LC50 (the source's name) (converted)
MDA-MB-468 = test: NCI 60 five-dose screen MDA-MB-468; details: Homo sapiens, five-dose; for CC50: read-out: LC50 (the source's name) (converted)
[2] = MV4-11, 72 h, MV-4-11 cells, 3 days, CellTiter-Glo 2.0, read-out: IC50 (uM) [Cell Type: MV-4-11]
[3] = MV4-11, bound stated in text, read-out: IC50 against MV-4-11 acute myeloid leukemia cells

## OC1CCC(Cn2c(C(F)(F)F)cc3c(Cl)ncnc32)CC1 (stereo not shown) [NUCC-0226689]
[1]; [2]
  IC50: 0.689 µM
[1]; [3]
  IC50: < 2 µM
K-562
  GI50: 2.88 µM
  IC50: 3.55 µM
  IC (TGI): 100 µM
  CC50: ≥ 100 µM
MOLT-4
  GI50: 2.75 µM
  IC50: 4.47 µM
  IC (TGI): 8.13 µM
  CC50: ≥ 100 µM
RPMI-8226
  GI50: 33.9 µM
  IC50: 58.9 µM
  IC (TGI): 100 µM
  CC50: ≥ 100 µM
EKVX
  GI50: 12.9 µM
  IC50: 29.5 µM
  IC (TGI): 38.9 µM
  CC50: ≥ 100 µM
NCI-H226
  GI50: 23.4 µM
  IC50: 100 µM
  IC (TGI): 79.4 µM
  CC50: ≥ 100 µM
NCI-H23
  GI50: 3.09 µM
  IC50: 5.5 µM
  IC (TGI): 11.5 µM
  CC50: 45.7 µM
SW-620
  GI50: 12.3 µM
  IC50: 17 µM
  IC (TGI): 38.9 µM
  CC50: ≥ 100 µM
SNB-19
  GI50: 13.5 µM
  IC50: 24 µM
  IC (TGI): 26.9 µM
  CC50: 53.7 µM
LOX IMVI
  GI50: 1.7 µM
  IC50: 3.02 µM
  IC (TGI): 3.16 µM
  CC50: 5.75 µM
MALME-3M
  GI50: 17.8 µM
  IC50: 85.1 µM
  IC (TGI): 64.6 µM
  CC50: ≥ 100 µM
MDA-MB-435
  GI50: 12 µM
  IC50: 20 µM
  IC (TGI): 25.7 µM
  CC50: 55 µM
SK-MEL-28
  GI50: 9.33 µM
  IC50: 19.1 µM
  IC (TGI): 30.9 µM
  CC50: ≥ 100 µM
SK-MEL-5
  GI50: 4.79 µM
  IC50: 8.32 µM
  IC (TGI): 16.6 µM
  CC50: 42.7 µM
OVCAR-3
  GI50: 8.13 µM
  IC50: 19.1 µM
  IC (TGI): 28.8 µM
  CC50: 97.7 µM
SK-OV-3
  GI50: 22.4 µM
  IC50: 67.6 µM
  IC (TGI): 100 µM
  CC50: ≥ 100 µM
786-0
  GI50: 32.4 µM
  IC50: 49 µM
  IC (TGI): 100 µM
  CC50: ≥ 100 µM
RXF 393
  GI50: 12.6 µM
  IC50: 37.2 µM
  IC (TGI): 34.7 µM
  CC50: 97.7 µM
TK-10
  GI50: 100 µM
  IC50: 100 µM
  IC (TGI): 100 µM
  CC50: ≥ 100 µM
UO-31
  GI50: 15.1 µM
  IC50: 38.9 µM
  IC (TGI): 66.1 µM
  CC50: ≥ 100 µM
PC-3
  GI50: 8.91 µM
  IC50: 15.5 µM
  IC (TGI): 36.3 µM
  CC50: ≥ 100 µM
DU-145
  GI50: 7.94 µM
  IC50: 13.8 µM
  IC (TGI): 20.4 µM
  CC50: 46.8 µM
MDA-MB-231/ATCC
  GI50: 4.47 µM
  IC50: 11 µM
  IC (TGI): 20 µM
  CC50: 69.2 µM
BT-549
  GI50: 13.2 µM
  IC50: 28.2 µM
  IC (TGI): 28.2 µM
  CC50: 58.9 µM
MDA-MB-468
  GI50: 2.14 µM
  IC50: 7.08 µM
  IC (TGI): 5.62 µM
  CC50: 22.4 µM

## FC(F)(F)c1cc2c(Cl)ncnc2n1CCN1CCOCC1 [NUCC-0226680]
[1]; [2]
  IC50: 0.679 µM
[1]; [3]
  IC50: < 2 µM
K-562
  GI50: 3.02 µM
  IC50: 3.72 µM
  IC (TGI): 18.6 µM
  CC50: ≥ 100 µM
MOLT-4
  GI50: 5.75 µM
  IC50: 10.7 µM
  IC (TGI): 28.8 µM
  CC50: ≥ 100 µM
RPMI-8226
  GI50: 31.6 µM
  IC50: 46.8 µM
  IC (TGI): 100 µM
  CC50: ≥ 100 µM
EKVX
  GI50: 17 µM
  IC50: 50.1 µM
  IC (TGI): 95.5 µM
  CC50: ≥ 100 µM
NCI-H226
  GI50: 100 µM
  IC50: 100 µM
  IC (TGI): 100 µM
  CC50: ≥ 100 µM
NCI-H23
  GI50: 17.8 µM
  IC50: 37.2 µM
  IC (TGI): 74.1 µM
  CC50: ≥ 100 µM
SW-620
  GI50: 10.5 µM
  IC50: 14.5 µM
  IC (TGI): 56.2 µM
  CC50: ≥ 100 µM
SNB-19
  GI50: 15.5 µM
  IC50: 28.8 µM
  IC (TGI): 33.1 µM
  CC50: 70.8 µM
LOX IMVI
  GI50: 1.74 µM
  IC50: 3.02 µM
  IC (TGI): 3.39 µM
  CC50: 6.61 µM
MALME-3M
  GI50: 21.9 µM
  IC50: 87.1 µM
  IC (TGI): 67.6 µM
  CC50: ≥ 100 µM
MDA-MB-435
  GI50: 13.2 µM
  IC50: 22.4 µM
  IC (TGI): 29.5 µM
  CC50: 64.6 µM
SK-MEL-28
  GI50: 13.5 µM
  IC50: 25.1 µM
  IC (TGI): 33.1 µM
  CC50: 79.4 µM
SK-MEL-5
  GI50: 12.9 µM
  IC50: 22.9 µM
  IC (TGI): 29.5 µM
  CC50: 67.6 µM
OVCAR-3
  GI50: 19.5 µM
  IC50: 37.2 µM
  IC (TGI): 43.7 µM
  CC50: 97.7 µM
SK-OV-3
  GI50: 100 µM
  IC50: 100 µM
  IC (TGI): 100 µM
  CC50: ≥ 100 µM
786-0
  GI50: 37.2 µM
  IC50: 61.7 µM
  IC (TGI): 100 µM
  CC50: ≥ 100 µM
RXF 393
  GI50: 14.8 µM
  IC50: 42.7 µM
  IC (TGI): 40.7 µM
  CC50: ≥ 100 µM
TK-10
  GI50: 100 µM
  IC50: 100 µM
  IC (TGI): 100 µM
  CC50: ≥ 100 µM
UO-31
  GI50: 2.51 µM
  IC50: 5.37 µM
  IC (TGI): 8.91 µM
  CC50: 37.2 µM
PC-3
  GI50: 11.2 µM
  IC50: 19.1 µM
  IC (TGI): 36.3 µM
  CC50: ≥ 100 µM
DU-145
  GI50: 28.8 µM
  IC50: 50.1 µM
  IC (TGI): 100 µM
  CC50: ≥ 100 µM
MDA-MB-231/ATCC
  GI50: 4.37 µM
  IC50: 11.5 µM
  IC (TGI): 18.2 µM
  CC50: 53.7 µM
BT-549
  GI50: 13.5 µM
  IC50: 28.2 µM
  IC (TGI): 28.2 µM
  CC50: 58.9 µM
MDA-MB-468
  GI50: 2.75 µM
  IC50: 15.8 µM
  IC (TGI): 10.5 µM
  CC50: 42.7 µM
